Molecular target: T1, acetylcholinesterase (Rattus norvegicus, UniProt P37136)
T1 construct: synaptosome-rich fraction containing endogenous acetylcholinesterase enzyme; from tissue; host or cells: rat cerebral cortex, synaptosome-rich fraction (Whittaker's P2 fraction: synaptosomes and mitochondria)
T1 sequence (P37136 32-614): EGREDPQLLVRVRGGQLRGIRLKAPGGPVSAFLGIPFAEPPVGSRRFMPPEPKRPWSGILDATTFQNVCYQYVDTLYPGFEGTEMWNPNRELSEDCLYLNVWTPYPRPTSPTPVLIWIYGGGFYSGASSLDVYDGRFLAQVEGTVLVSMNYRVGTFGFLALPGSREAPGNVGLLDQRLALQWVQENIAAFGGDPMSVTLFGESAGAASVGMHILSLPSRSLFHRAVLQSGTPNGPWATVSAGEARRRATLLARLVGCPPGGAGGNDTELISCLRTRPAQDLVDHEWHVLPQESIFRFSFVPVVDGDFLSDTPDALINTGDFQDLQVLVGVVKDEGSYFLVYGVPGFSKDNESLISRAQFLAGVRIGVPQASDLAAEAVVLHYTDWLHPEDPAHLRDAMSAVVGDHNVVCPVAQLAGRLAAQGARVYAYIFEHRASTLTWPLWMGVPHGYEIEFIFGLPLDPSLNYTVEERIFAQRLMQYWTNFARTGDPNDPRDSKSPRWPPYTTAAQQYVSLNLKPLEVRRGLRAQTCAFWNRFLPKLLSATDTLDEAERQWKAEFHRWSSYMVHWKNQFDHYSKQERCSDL
Assay: Inhibition of acetylcholinesterase in rat cortex synaptosome-rich fraction (hydrolysis of labelled acetylcholine)
Assay type: biochemical
Protocol: Rats were killed by decapitation and the brains were rapidly extirpated. The cortex was dissected out on ice according to the method of Glowinski and Iversen. […] Homogenates were centrifuged at 1000× g for 10 minutes to remove cell nuclei and heavy debris. […] A portion of this synaptosome-rich fraction was added in triplicate to ice-cold pH 7.4 Krebs-Ringer medium.
Assay of acetylcholinesterase was carried out according to the method of Johnson and Russell. See C. […] Acetylcholine labelled in the acetate moiety was enzymatically hydrolyzed by incubation for 10 minutes at room temperature in the presence of the above synaptosome-rich fraction containing endogenous acetylcholinesterase enzyme. The reaction was terminated by addition of a "stopping mixture" containing chloroacetic acid (1.0M), sodium hydroxide (0.5M) and sodium cloride (2.0M) to the reaction vial. Toluene-based scintillation fluid was added to the vial, to extract the released labelled acetate into the organic phase. […] Thus, the sample can be counted directly in the same reaction vial, in which the hydrolysis of sample by acetylcholinesterase has occurred.
Inhibition of cholinesterase activity was estimated, in triplicate, in the presence of a wide range of concentrations (10^-9 to 10^-3 M).

Compound: CCC=C1C2C=C(C)CC1(N)c1ccc(=O)[nH]c1C2 (stereo not drawn) [1-carbon Analog]
- inhibition of the cholinesterase enzyme (in words) (compared with huperzine A): inhibited the cholinesterase enzyme, but to a lesser extent than huperzine A
- IC50 (read-out: IC50 (extent of cholinesterase enzyme inhibition), rat cortex synaptosome-rich fraction, 10 min, room temperature, triplicate, 10^-9 to 10^-3 M): 100 µM
- IC50 /IC50 of Huperzine A (relative to synthesized huperzine A, the smaller this number, the more potent the compound): 166.6

From patent US5663344A, “Method for the synthesis of huperzine A and analogs thereof and compounds useful therein” (Mayo Foundation for Medical Education and Research, priority 1994, dated 1997)
